Assays:
Hepacivirus hominis [1] = test: Inhibition of HCV NS3 protease at 0.01 uM by FRET assay
Hepatitis C virus = test: Antiviral activity against HCV by cell based viral replicon assay; format: functional, organism-based, Hepacivirus hominis
[2] = target: T1, DNA repair protein RAD51 homolog 1 (Homo sapiens, UniProt Q06609); test: Binding affinity to RAD51 (unknown origin) by isothermal calorimetry
T1 sequence (Q06609 whole entry): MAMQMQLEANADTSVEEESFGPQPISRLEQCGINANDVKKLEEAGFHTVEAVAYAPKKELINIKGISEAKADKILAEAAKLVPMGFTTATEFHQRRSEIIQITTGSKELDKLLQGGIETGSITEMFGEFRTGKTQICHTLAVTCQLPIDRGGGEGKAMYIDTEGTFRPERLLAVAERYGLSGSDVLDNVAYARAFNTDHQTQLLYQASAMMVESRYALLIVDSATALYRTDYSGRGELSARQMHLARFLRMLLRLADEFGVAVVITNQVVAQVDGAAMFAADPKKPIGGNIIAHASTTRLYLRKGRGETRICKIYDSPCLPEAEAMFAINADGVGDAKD

GTPase KRas = GTPase KRas (Homo sapiens, UniProt P01116); test: Binding affinity to KRas (unknown origin)
Hepacivirus hominis [3] = test: Inhibition of HCV NS3 protease at 500 uM by FRET assay

GTPase KRas, sequence (P01116 whole entry): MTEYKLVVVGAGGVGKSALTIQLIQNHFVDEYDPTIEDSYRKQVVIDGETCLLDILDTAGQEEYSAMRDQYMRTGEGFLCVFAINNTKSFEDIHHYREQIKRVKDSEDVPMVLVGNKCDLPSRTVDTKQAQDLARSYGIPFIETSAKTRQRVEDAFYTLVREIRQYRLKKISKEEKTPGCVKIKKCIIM

Structure (SMILES) | Kd [2] | further results
CC[C@@H](N[C@@H](C)CC(=O)NCCN)c1ccc(Cl)c(Oc2ccccc2)c1F | – | inhibition (Hepacivirus hominis [1]): 68%; EC50 (Hepatitis C virus): 0.008 µM
Oc1ccc2[nH]ccc2c1 | 2100 µM | –
O=C(N[C@@H](Cc1c[nH]c2ccccc12)C(=O)OCCc1ccccc1)c1ccccc1 | 3 µM | –
O=S(=O)(NCCc1c[nH]c2ccccc12)c1cc(Br)c(Cl)s1 | 1.3 µM | –
N[C@@H](Cc1c[nH]c2ccccc12)C(=O)OCCc1ccccc1 | 35 µM | –
CC[C@H](C)[C@H](N)C(=O)Nc1ccc2nc(Cc3c[nH]c4ccccc34)[nH]c2c1 | – | Kd (GTPase KRas): 190 µM
Cc1[nH]c2ccccc2c1Cc1nc2ccccc2[nH]1 | – | Kd (GTPase KRas): 2000 µM
COC(=O)[C@@H](N)Cc1c[nH]c2ccccc12 [TRYPTOPHAN METHYL ESTER] | 570 µM | –
NCc1ccc(Oc2ccccc2)cc1 | – | inhibition (Hepacivirus hominis [3]): 55%
